ChEMBL document CHEMBL1201862, “PubChem BioAssay data set” (2004)
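The compound was tested at five concentrations on cells cultured in 96-well plates, with a 48-hour exposure period. Abbreviation: GI50, concentration required for 50% inhibition of growth.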 Active and inactive are the calls of the source. Cut-off read from the data, not from the text of the source: active = GI50 up to about 1.1 µM and inactive = higher. Where a SMILES comes first, the peptide text is derived from it. The star is where a group is joined. Boc = CC(C)(C)OC(=O)*; OBn = c1ccc(CO*)cc1

Key:
Test in all cases: growth of human tumour cells (NCI), 48 h
DU-145 = system: DU-145
HCT-15 = system: HCT-15
HL-60 = system: HL-60
K562 = system: K562
LOX IMVI = system: LOX IMVI
MDA-MB-435 = system: MDA-MB-435
MOLT-4 = system: MOLT-4
NCI-H226 = system: NCI-H226
NCI-H460 = system: NCI-H460
NCI-H522 = system: NCI-H522
OVCAR-4 = system: OVCAR-4
OVCAR-5 = system: OVCAR-5
PC-3 = system: PC-3
RPMI-8226 = system: RPMI-8226
SF-539 = system: SF-539
SK-MEL-28 = system: SK-MEL-28
SN12C = system: SN12C
T47D = system: T47D
U-251 = system: U-251
SR = system: SR

Row | SMILES | GI50 (DU-145) | GI50 (HCT-15) [µM] | GI50 (HL-60) | GI50 (K562) | GI50 (LOX IMVI) | GI50 (MDA-MB-435) | GI50 (MOLT-4) | GI50 (NCI-H226) | GI50 (NCI-H460) | GI50 (NCI-H522) | GI50 (OVCAR-4) | GI50 (OVCAR-5) | GI50 (PC-3) | GI50 (RPMI-8226) | GI50 (SF-539) | GI50 (SK-MEL-28) | GI50 (SN12C) | GI50 (T47D) | GI50 (U-251) | GI50 (SR)
1 | Nc1ccc(Cc2c(N)[nH]c(=O)[nH]c2=O)cc1 | > 100 µM (inactive) | > 100 | 85.5 µM (inactive) | > 100 µM (inactive) | > 100 µM (inactive) | > 100 µM (inactive) | 1.61 µM (inactive) | 86.1 µM (inactive) | > 100 µM (inactive) | > 100 µM (inactive) | > 100 µM (inactive) | > 100 µM (inactive) | > 100 µM (inactive) | > 100 µM (inactive) | > 100 µM (inactive) | > 100 µM (inactive) | > 100 µM (inactive) | > 100 µM (inactive) | > 100 µM (inactive) | –
2 | COC(=O)NC1(NC(=O)OC)NC(=O)c2cc(OC)c(OC)cc2N1 | 48.6 µM (inactive) | 13.2 | – | 34.2 µM (inactive) | 62.1 µM (inactive) | 2.97 µM (inactive) | – | – | 30.7 µM (inactive) | 2.54 µM (inactive) | – | > 100 µM (inactive) | 26.1 µM (inactive) | 32.5 µM (inactive) | 25.6 µM (inactive) | 29.3 µM (inactive) | > 100 µM (inactive) | 39.4 µM (inactive) | – | 25.4 µM (inactive)
3 | CC1(C)C2CCC(N)(C2)C1O (stereo unspecified) | > 100 µM (inactive) | > 100 | > 10 µM (inactive) | > 100 µM (inactive) | > 100 µM (inactive) | > 100 µM (inactive) | > 100 µM (inactive) | > 100 µM (inactive) | > 100 µM (inactive) | – | > 100 µM (inactive) | > 100 µM (inactive) | > 100 µM (inactive) | > 100 µM (inactive) | – | > 100 µM (inactive) | > 100 µM (inactive) | > 100 µM (inactive) | > 100 µM (inactive) | > 100 µM (inactive)
4 | O=C1Nc2ccccc2[C@]12C[C@H]2c1ccccn1 | > 100 µM (inactive) | > 100 | – | > 100 µM (inactive) | > 100 µM (inactive) | > 100 µM (inactive) | > 100 µM (inactive) | 62.8 µM (inactive) | > 100 µM (inactive) | > 100 µM (inactive) | > 100 µM (inactive) | > 100 µM (inactive) | > 100 µM (inactive) | > 100 µM (inactive) | > 100 µM (inactive) | > 100 µM (inactive) | > 100 µM (inactive) | > 100 µM (inactive) | > 100 µM (inactive) | –
5 | CN1C(=O)N/C(=C\c2ccc(S(=O)(=O)N/N=C\C(O)C(O)C(O)CO)cc2)C1=O (stereo unspecified) | > 100 µM (inactive) | > 100 | > 100 µM (inactive) | > 100 µM (inactive) | > 100 µM (inactive) | > 100 µM (inactive) | > 100 µM (inactive) | > 10 µM (inactive) | > 100 µM (inactive) | – | > 100 µM (inactive) | > 100 µM (inactive) | > 100 µM (inactive) | > 100 µM (inactive) | – | > 100 µM (inactive) | > 100 µM (inactive) | > 100 µM (inactive) | > 100 µM (inactive) | > 100 µM (inactive)
6 | N#Cc1c(Cl)c2ccccc2n2c1nc1ccccc12 | 27.7 µM (inactive) | 15.2 | 5.33 µM (inactive) | 18.9 µM (inactive) | 10.8 µM (inactive) | 56.1 µM (inactive) | 30.3 µM (inactive) | 21.6 µM (inactive) | 69.7 µM (inactive) | – | 27.4 µM (inactive) | > 100 µM (inactive) | 31 µM (inactive) | 31.3 µM (inactive) | 19.4 µM (inactive) | 79.3 µM (inactive) | 25.4 µM (inactive) | 27.2 µM (inactive) | 92.7 µM (inactive) | 50 µM (inactive)
7 | O=C(/C=C1/Nc2ccc([N+](=O)[O-])cc2N/C1=C/C(=O)c1ccccc1)c1ccccc1 | 43.7 µM (inactive) | 11.5 | – | 32.8 µM (inactive) | – | > 100 µM (inactive) | 22.5 µM (inactive) | 23.4 µM (inactive) | 13.7 µM (inactive) | 13.3 µM (inactive) | 5.6 µM (inactive) | > 100 µM (inactive) | 43.7 µM (inactive) | – | 8.2 µM (inactive) | – | 40.8 µM (inactive) | 18.3 µM (inactive) | 13.5 µM (inactive) | 27.5 µM (inactive)
8 | CNC1=Nc2ccccc2C(=O)N2CSCC12 (stereo unspecified) | > 100 µM (inactive) | > 100 | – | > 100 µM (inactive) | > 100 µM (inactive) | > 100 µM (inactive) | > 100 µM (inactive) | > 100 µM (inactive) | > 100 µM (inactive) | 23.9 µM (inactive) | > 100 µM (inactive) | > 100 µM (inactive) | > 100 µM (inactive) | > 100 µM (inactive) | – | > 100 µM (inactive) | > 100 µM (inactive) | > 100 µM (inactive) | > 100 µM (inactive) | > 100 µM (inactive)
9 | Cc1ccc(C(=O)N/N=C(\N=N\c2ccc(C(=O)O)cc2)c2ccc(N(CCC#N)CCC#N)cc2C)cc1 | > 100 µM (inactive) | > 100 | 79.3 µM (inactive) | > 100 µM (inactive) | > 100 µM (inactive) | > 100 µM (inactive) | > 100 µM (inactive) | > 100 µM (inactive) | > 100 µM (inactive) | – | > 100 µM (inactive) | > 100 µM (inactive) | > 100 µM (inactive) | > 100 µM (inactive) | > 100 µM (inactive) | > 100 µM (inactive) | > 100 µM (inactive) | 70.5 µM (inactive) | > 100 µM (inactive) | > 100 µM (inactive)
10 | COC(=O)C(Cc1ccccc1)NC(=O)CSc1nnc(COc2ccc(Cl)cc2)n1-c1ccccc1 (stereo unspecified) | 34.8 µM (inactive) | 35.2 | 20.6 µM (inactive) | 27.4 µM (inactive) | 14.6 µM (inactive) | 19.1 µM (inactive) | 34 µM (inactive) | 40.6 µM (inactive) | 16.5 µM (inactive) | – | 21.4 µM (inactive) | 24.8 µM (inactive) | 22.8 µM (inactive) | 20.5 µM (inactive) | 22.4 µM (inactive) | 27.2 µM (inactive) | 21.2 µM (inactive) | 26.1 µM (inactive) | 18.5 µM (inactive) | 5.41 µM (inactive)
11 | O=c1cc(N2CCNCC2)nc2ccccn12 | > 100 µM (inactive) | > 100 | > 100 µM (inactive) | > 100 µM (inactive) | > 100 µM (inactive) | > 100 µM (inactive) | > 100 µM (inactive) | > 100 µM (inactive) | – | > 100 µM (inactive) | – | > 100 µM (inactive) | > 100 µM (inactive) | > 100 µM (inactive) | > 100 µM (inactive) | – | > 100 µM (inactive) | > 100 µM (inactive) | > 100 µM (inactive) | –
12 | CC(C)CC(NC(=O)OC(C)(C)C)C(=O)N1CCCC1C(=O)OCc1ccccc1 (stereo not drawn) (Boc-Leu-Pro-OBn; configuration not given here) | > 100 µM (inactive) | 63.4 | – | 35.2 µM (inactive) | 40.4 µM (inactive) | > 100 µM (inactive) | – | > 100 µM (inactive) | – | > 100 µM (inactive) | > 100 µM (inactive) | > 100 µM (inactive) | > 100 µM (inactive) | – | > 100 µM (inactive) | 76.7 µM (inactive) | > 100 µM (inactive) | > 100 µM (inactive) | > 100 µM (inactive) | 15.3 µM (inactive)
